Laboratory results: patent publication US20060135501A1, “Piperidinyl-thiazole carboxylic acid derivatives as angiogenesis inhibitors” (priority 2002, published 2006)

Experiments:
[1] = tested on: PDGF binding to mouse 3T3 cells; assay: Platelet-Derived Growth Factor (PDGF) radioligand binding assay
Procedure: (§1) Compounds 1633-00382 and 1633-02177 were tested for selectivity by determining their effect on the following assays: • Basic Fibroblast Growth Factor (FGF)-Induced cell proliferation (Gospodarowicz D, Brown K D, Birdwell C R & Zetter B R (1978) J. Cell. Biol. 77: 774-788); • Epidermal Growth Factor (EGF) radioligand binding assay (Dittadi R, Gion M, Brazzale A., Bruscagnin G. (1990) Clin. Chem. 36: 849-854; Massague J (1983) J. Biol. Chem. 258:13614-13620); and • Platelet-Derived Growth Factor (PDGF) radioligand binding assay (Williams L T, Tremble P M, Lavin M F & Sunday M E (1984) J. Biol. Chem. 259 5287-5294

[2] = target: T1, rhVEGF165-biotin (Homo sapiens, UniProt P15692); assay: VEGF-Binding ELISA (dose-response); settings: Table 6
T1 sequence (P15692 27-191 isoform P15692-4): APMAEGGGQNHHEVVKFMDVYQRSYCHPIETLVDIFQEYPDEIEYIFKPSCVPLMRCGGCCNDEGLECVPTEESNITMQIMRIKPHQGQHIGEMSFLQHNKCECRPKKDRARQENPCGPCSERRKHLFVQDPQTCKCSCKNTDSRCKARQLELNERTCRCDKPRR
Procedure: The potency of test substances as a VEGF-neutralising moiety is measured in an ELISA format. This assay measures the solution-phase interaction between rhVEGF165-biotin and test sample. Unbound VEGF165-biotin is then immobilised on a solid-phase anti-hVEGF antibody (R&D systems MAB293). The biotin signal is detected with streptavidin-alkaline phosphatase, which gives a colorimetric signal when incubated with p-nitrophenyl phosphate. Plates are read in a spectrophotometer at 405 nm.
Any test compound that binds to VEGF165-biotin and prevents it from binding to the antibody will lower the color signal and be recognized as a “hit”. Hits were defined as compounds that show>60% inhibition.
VEGF165-biotin+assay buffer ? 0% inhibition
Soluble VEGF receptor (sflt @ 4 nM) ? 70% inhibition
The primary screening of all library compounds was done at a compound concentration of 50 μM, followed by measuring dose-response effects of “hits” between 0.05 and 500 μM for the calculation of IC50 values.
The compounds were dissolved in DMSO and it was shown that the solvent has no effect on the assay at this concentration.

[3] = target: T2, EGF binding to human A431 cells (Homo sapiens, UniProt P00533); assay: Epidermal Growth Factor (EGF) radioligand binding assay
T2 construct: endogenous in cells; host or cells: A431
T2 sequence (P00533 25-1210): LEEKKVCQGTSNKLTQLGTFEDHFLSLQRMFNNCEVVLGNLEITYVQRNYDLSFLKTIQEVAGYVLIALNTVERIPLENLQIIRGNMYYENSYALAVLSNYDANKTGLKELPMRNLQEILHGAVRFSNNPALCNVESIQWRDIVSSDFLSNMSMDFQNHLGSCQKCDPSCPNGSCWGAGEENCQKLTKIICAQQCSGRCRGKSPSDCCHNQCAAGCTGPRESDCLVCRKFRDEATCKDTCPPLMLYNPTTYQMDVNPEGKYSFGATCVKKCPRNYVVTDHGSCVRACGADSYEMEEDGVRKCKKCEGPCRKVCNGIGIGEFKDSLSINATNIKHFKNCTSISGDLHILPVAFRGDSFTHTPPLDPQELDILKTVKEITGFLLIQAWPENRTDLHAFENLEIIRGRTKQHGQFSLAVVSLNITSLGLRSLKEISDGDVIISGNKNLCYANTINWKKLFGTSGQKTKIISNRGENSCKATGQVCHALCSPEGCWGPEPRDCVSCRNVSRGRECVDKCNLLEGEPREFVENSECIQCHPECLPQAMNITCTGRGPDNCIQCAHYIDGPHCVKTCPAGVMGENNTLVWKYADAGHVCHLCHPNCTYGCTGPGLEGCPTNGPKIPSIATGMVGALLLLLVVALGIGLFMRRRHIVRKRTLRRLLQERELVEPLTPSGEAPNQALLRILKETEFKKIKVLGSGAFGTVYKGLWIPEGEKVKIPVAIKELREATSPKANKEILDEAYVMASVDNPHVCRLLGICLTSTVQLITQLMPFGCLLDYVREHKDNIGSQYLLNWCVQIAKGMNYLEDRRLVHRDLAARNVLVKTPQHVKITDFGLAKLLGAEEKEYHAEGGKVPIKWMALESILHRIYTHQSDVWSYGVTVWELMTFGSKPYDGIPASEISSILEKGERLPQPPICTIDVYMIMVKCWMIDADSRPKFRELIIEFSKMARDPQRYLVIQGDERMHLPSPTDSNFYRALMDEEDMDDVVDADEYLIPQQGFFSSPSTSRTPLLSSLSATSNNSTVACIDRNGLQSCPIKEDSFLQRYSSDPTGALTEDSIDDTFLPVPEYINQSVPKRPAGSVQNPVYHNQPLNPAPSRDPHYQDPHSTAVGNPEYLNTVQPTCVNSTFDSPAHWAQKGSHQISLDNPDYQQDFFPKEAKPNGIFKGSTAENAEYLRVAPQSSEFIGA
Procedure: as §1

[4] = tested on: human umbilical vein endothelial cells (HUVEC); assay: HUVEC proliferation assay co-stimulated with rhVEGF; format: cell-based; settings: Homo sapiens, HUVEC, Table 6
Procedure: The HUVEC assay measures the potency of test substances to inhibit in vitro proliferation of human umbilical vein endothelial cells (HUVEC) when co-stimulated with recombinant human vascular endothelial growth factor (rhVEGF).
HUVEC are grown under defined conditions (EGM-2 medium, 37° C., 5% CO2 and 95% humidity). They are seeded into 48-well plates using EBM medium with only 1% serum and incubated for 24 h. This is to ensure that cells are not stimulated before treatment with VEGF and test compound.
Test compounds are diluted in medium to concentrations between 0.05 and 50 μM and dosed together with VEGF165 at 12 ng/ml. This VEGF concentration was determined in a VEGF-dose-response curve to be just sub-optimal for maximum cell proliferation. Cells are incubated for 48 h at above conditions and viable cell density is measured using a tetrazolium compound (MTS). Viable cells reduce MTS into a soluble formazan product, which has an absorbance maximum at 490 nm. The absorbance is directly proportional to cell density.
EBM+1% serum (no VEGF) ? Minimum or Blank
EBM+1% serum (12 ng/ml) ? Maximum

[5] = tested on: basic FGF; assay: Basic Fibroblast Growth Factor (FGF)-induced cell proliferation; format: cell-based
Procedure: as §1

[6] = ***re-tested in full-concentration response assays

SMILES | inhibition of PDGF binding [1] | IC50 [2, 6] [µM] | IC50 ([2]; **tested after re-synthesised) [µM] | IC50 ([2]; *re-test 3 months later) [µM] | IC50 ([2]; first test (unmarked value)) [µM] | inhibition of EGF binding [3] | IC50 [4, 6] [µM] | IC50 ([4]; **tested after re-synthesised) [µM] | IC50 ([4]; *re-test 3 months later) [µM] | IC50 ([4]; first test (unmarked value)) [µM] | IC50 ([5]; Fibroblast, significant anti-proliferative activity, estimated value, read-out: anti-proliferative activity against basic FGF, estimated value) [µM] | cytotoxicity ([5]; at 10 μM)
NC(=O)c1ccc(Cl)c(NC(=O)c2csc(C3CCN(C(=O)CSc4ncccn4)CC3)n2)c1 [Compound 1633-00382] | did not inhibit | 1 | 4 | 3.49 | 0.655 | did not inhibit | 12 | 20 | 16 | 0.938 |  | 
CN(C)c1cccc(C(=O)N2CCC(c3nc(C(=O)Nc4cc(CC(N)=O)ccc4Cl)cs3)CC2)c1 [Compound 1633-02177] | did not inhibit |  | 18 |  | 12 | did not inhibit |  | 0.478 |  | 0.712 | 0.406 | moderate but not significant cytotoxicity
